Where a name gives a salt, the structure may show the parent alone.
How the values were obtained:
Solubility in water = assay type: physicochemical; details: water / aqueous solution
[1] = DL50 in the dog, intravenous administration; assay type: in vivo, chien; details: i.v.; for DL50: relative to vinburnine = 1,0 (arbitrary)
Description: Les propriétés pharmacologiques du citrate de vinburnine ont été utlisées en thérapie avec de bons résultats.

[2] = system: circulation cérébrale (artère carotide interne); assay: Cerebral circulation (internal carotid artery) and vascular resistance after intravenous and intra-arterial administration in dogs; assay type: in vivo, chiens; details: relative to vinburnine = 1,0 (arbitrary); for CERVEAU Diminution résistance vasculaire i.v. / CERVEAU augmentation circulation i.v.: 1 à 4 mg/kg, 4 mg/kg
Procedure: D'autre part, on a réalisé une étude spr la pression sanguine et la circulation cérébrale en administrant des doses intraveineuses de 1 à 4 mg/kg d'animal.
Dans l'étude de l'effet de ce composé, on a enregistré et calculé la circulation cérébrale (artère carotide interne) et la résistance vasculaire lors de l'administration des composés par voie intraveineuse et intraartérielle chez des chiens. Les valeurs données dans le tableau suivant sont rapportés à la valeur de 1,0 donnée arbitrairement à la vinburnine.

oxyhémoglobine = assay: Dissociation of oxyhaemoglobin in anaesthetised dogs (Fig. 2); assay type: in vivo, chiens; details: 5mg/kg (Fig. 2)
Description: (§1) L'invention sera mieux comprise à la lecture du complément de description qui suit se référant aux dessins annexés dans lesquels: • - La Fig.l est une illustration graphique de l'augmentation de consommation cérébrale de desoxyglucose chez un animal traité avec le citrate de vinburnine • - La Fig.2, est une illustration graphique de l'augmentation de la dissociation de l'oxyhémoglobine chez un animal traité avec le citrate de vinburnine. Dans l'étude sur l'augmentation de la consommation du glucose, on a utilisé des doses de 1 à 4 Mg/kg de citrate de vinburnine chez des chiens auxquels on administre du deoxyglucose marqué au C14, par voie orale.
(§2) Cette différence observée dans l'importance de la dissociation de l'oxyhémoglobine par la vinburnine et le citrate de vinburnine est illustrée sur le graphique de la Fig.2.

[3] = system: consommation cérébrale du C14-desoxyglucose; assay: Cerebral consumption of C14-labelled deoxyglucose in dogs (Fig. 1); assay type: in vivo, chiens; details: 1 à 4 Mg/kg, C14-deoxyglucose given orally, compared with untreated animal and with vinburnine (Fig. 1)
Description: as §1, §2

Structure (SMILES)	solubilité dans l'eau (Solubility in water)	valeurs de DL50 ([1]; in words, compared with vinburnine base)	DL50 [1]	CERVEAU Diminution résistance vasculaire i.a. [2]	CERVEAU augmentation circulation i.a. [2]	CERVEAU Diminution résistance vasculaire i.v. [2]	CERVEAU augmentation circulation i.v. [2]	dissociation de l'oxyhémoglobine (oxyhémoglobine)	consommation cérébrale du C14-desoxyglucose [3]
CC[C@]12CCCN3CCc4c(n(c5ccccc45)C(=O)C1)[C@@H]32 [citrate de vinburnine, citrate de (-) vinburnine]	soluble en solution aqueuse	sensiblement inférieures à celles correspondant à la vinburnine sous forme de base	1,2	0,6	0,8	0,8	0,9	augmentation dans la dissociation de l'oxyhémoglobine	consommation du glucose plus importante
CC[C@]12CCCN3CCc4c(n(c5ccccc45)C(=O)C1)[C@@H]32 [vinburnine]	insoluble dans l'eau		1,0	1,0	1,0	1,0	1,0		augmentation de la consommation cérébrale du C14-desoxyglucose

Reference: patent EP0164478A2, “Citric-acid salt of (-)vinburnine and process for its preparation” (COVEX (S.A.), priority 1984, dated 1985)
